Tests used:
[1] = system: NCI-H1792 cells; test: Anti proliferative activity in NCI-H1792 cells by XTT assay; type: cell-based; conditions: Homo sapiens, NCI-H1792, 72 h, H1792 cell line; for IC50: 72 hours incubation; for viability at 30 µM: 72 hours
Description: Example 78: Determination of Anti Proliferative Activity in NCI-H1792 Cells by XTT Assay
NCI-H1792 cells (ATCC CRL-5895) were plated at 2000 cells/well in 96 well flat clear bottom plates (Corning, Cat. No 3596) using complete RPMI media. After 24 hours, compounds of present invention were added to cells from 20 mM stocks made in DMSO (Sigma Cat no. D2650). Each concentration of compound was tested in triplicate with DMSO concentration not exceeding a final percentage of 0.3 in the cells. After 72 hours of incubation in CO2 incubator, XTT (Invitrogen, Cat. no X6493) was added to the wells. XTT was dissolved in serum free media at 1 mg/ml and absorbance readings were taken in spectrophotometer at 465 nm. The data was analysed using graph pad prism software. Positive control (100% survival)=Cells in complete media with 0.3% DMSO; Negative control/blank (0% survival)=Media alone containing 0.3% DMSO.
(§1) The compounds of the present invention were screened in the above mentioned assay and the results are tabulated below.

[2] = system: NCI-H2122 cells; test: Anti proliferative activity in NCI-H2122 cells by XTT assay; type: cell-based; conditions: Homo sapiens, NCI-H2122, 192 h, H2122 cell line; for IC50: 8 days (192 hour) incubation; for viability at 30 µM: 8 days
Description: Example 79: Determination of Anti Proliferative Activity in NCI-H2122 Cells by XTT Assay
NCI-H2122 cells (ATCC CRL-5985) were plated at 1000 cells/well in 96 well flat clear bottom plates (Corning, Cat. No 3596) using complete RPMI-1640 media. After 24 hours, compounds of present invention were added to cells from 10 mM stocks made in DMSO (Sigma Cat no. D2650). Each concentration of compound was tested in triplicate with DMSO concentration not exceeding a final percentage of 0.3 in the cells. Complete RPMI-1640 media changed at Day 3 (72 hour) and Day 6 (144 hour) along with compounds of current invention. After 8 days (192 hour) of incubation assay terminated using 50 μl of XTT reagent (Invitrogen, Cat. no X6493). XTT reagent was made by dissolving 1 mg/mi XTT in serum free media with addition of 25 μM Phenazine methosulfate (sigma Cat. no P9625). Absorbance readings were taken in spectrophotometer at 465 nm. The data was analysed using graph pad prism software. Positive control (100% survival)=Cells in complete media with 0.3% DMSO; Negative control/blank (0% survival)=Media alone containing 0.3% DMSO.
as §1

| Compound | IC50 [1] | viability at 30 µM [1] | IC50 [2] | viability at 30 µM [2] |
| --- | --- | --- | --- | --- |
| C=CC(=O)N1CCN(C(=O)NC(C)C#Cc2ccc3ccccc3c2)CC1 (centres unmarked) [Example 9] | > 25 µM | 47% | – | – |
| C=CC(=O)N1CCN(C(=O)NC(C)C#Cc2ccc3[nH]ncc3c2)CC1 (centres unmarked) [Example 10] | > 25 µM | 89% | – | – |
| C=CC(=O)N1CCN(C(=O)NC(C)C#Cc2cccc3c2cnn3C)CC1 (centres unmarked) [Example 11] | > 25 µM | 91% | – | – |
| C=CC(=O)NC1CCN(C(=O)NC(C)C#Cc2ccc(Cl)c(Cl)c2)CC1 (centres unmarked) [Example 12] | > 25 µM | 83% | – | – |
| CC(C#Cc1ccc(Cl)c(Cl)c1)NC(=O)N1CCN(C(=O)/C=C/c2ccccc2)CC1 (centres unmarked) [Example 13] | > 25 µM | – | – | – |
| C/C=C/C(=O)N1CCN(C(=O)NC(C)C#Cc2ccc(Cl)c(Cl)c2)CC1 (centres unmarked) [Example 14] | > 25 µM | – | – | – |
| CC(C)=CC(=O)N1CCN(C(=O)NC(C)C#Cc2ccc(Cl)c(Cl)c2)CC1 (centres unmarked) [Example 15] | > 25 µM | 90% | – | – |
| CC(C#Cc1ccc(Cl)c(Cl)c1)NC(=O)N1CCN(C(=O)C(C)Cl)CC1 (centres unmarked) [Example 16] | 10 to 25 µM | 3% | – | – |
| C=CC(=O)N1CCN(C(=O)NC(C)C#Cc2ccc(Cl)s2)CC1 (centres unmarked) [Example 17] | – | – | 10 to 25 µM | 19% |
| C=CC(=O)N1CCN(C(=O)NC(C)C#Cc2ccc(OCc3ccccc3)c(Cl)c2)CC1 (centres unmarked) [Example 18] | – | – | < 10 µM | 1% |
| CC(C#Cc1ccc(Cl)c(Cl)c1)NC(=O)N1CCN(C(=O)CCl)CC1 (centres unmarked) [Example 19] | < 10 µM | – | – | – |
| CC(C#Cc1ccc(Cl)c(Cl)c1)NC(=O)N1CCN(CC2CO2)CC1 (centres unmarked) [Example 21] | – | – | 10 to 25 µM | 31% |
| C=CC(=O)N1CCN(C(=O)NC(C)C#Cc2ccc(F)c(Cl)c2)CC1 (centres unmarked) [Example 22] | – | – | > 25 µM | 49% |
| C=CC(=O)N1CCN(C(=O)NC2(C#Cc3ccc(Cl)c(C4(C)CC4)c3)CC2)CC1 [Example 26] | – | – | 10 to 25 µM | – |
| C=CC(=O)N1CC(N2CCN(C(=O)NC3(C#Cc4ccc(Cl)c(C5(C)CC5)c4)CC3)CC2)C1 [Example 27] | – | – | < 10 µM | – |
| C=CC(=O)N1CCN(C(=O)NC(C)C#Cc2ccc(Cl)c(C3(C)CC3)c2)CC1 (centres unmarked) [Example 28] | – | – | 10 to 25 µM | – |
| C=CC(=O)N1CCN(C(=O)NC(C)C#Cc2ccc(Cl)cc2Cl)CC1 (centres unmarked) [Example 30] | – | – | 10 to 25 µM | 19% |
| C=CC(=O)NC1CC2CC1CN2C(=O)NC(C)C#Cc1ccc(Cl)c(Cl)c1 (centres unmarked) [Example 55] | > 25 µM | 100% | – | – |
| C=CS(=O)(=O)NC1CC2CC1CN2C(=O)NC(C)C#Cc1ccc(Cl)c(Cl)c1 (centres unmarked) [Example 56] | 10 to 25 µM | 39% | – | – |
| CCOC(=O)/C=C/C(=O)N1CCN(C(=O)NC(C)C#Cc2ccc(Cl)c(Cl)c2)CC1 (centres unmarked) [Example 57] | < 10 µM | 17% | – | – |
| C=CC(=O)N1CCC(C(=O)NC(C)C#Cc2ccc(Cl)c(Cl)c2)CC1 (centres unmarked) [Example 70] | < 10 µM | 33% | – | – |
| C=CC(=O)N[C@H]1CC[C@H](C(=O)NC(C)C#Cc2ccc(Cl)c(Cl)c2)CC1 (some centres unmarked) [Example 73] | > 25 µM | 64% | – | – |
